From ChEMBL document CHEMBL3351282, “An update on therapeutic opportunities offered by cancer glycolytic metabolism” (Bioorg Med Chem Lett, 2014)

Tests used:
Alpha-enolase = Alpha-enolase (Homo sapiens, UniProt P06733); assay: Inhibition of ENO1 (unknown origin)
Hexokinase-2 = target: T1, Hexokinase-2 (Homo sapiens, UniProt P52789); assay: Inhibition of hexokinase 2 (unknown origin)
T1 sequence (P52789 whole entry): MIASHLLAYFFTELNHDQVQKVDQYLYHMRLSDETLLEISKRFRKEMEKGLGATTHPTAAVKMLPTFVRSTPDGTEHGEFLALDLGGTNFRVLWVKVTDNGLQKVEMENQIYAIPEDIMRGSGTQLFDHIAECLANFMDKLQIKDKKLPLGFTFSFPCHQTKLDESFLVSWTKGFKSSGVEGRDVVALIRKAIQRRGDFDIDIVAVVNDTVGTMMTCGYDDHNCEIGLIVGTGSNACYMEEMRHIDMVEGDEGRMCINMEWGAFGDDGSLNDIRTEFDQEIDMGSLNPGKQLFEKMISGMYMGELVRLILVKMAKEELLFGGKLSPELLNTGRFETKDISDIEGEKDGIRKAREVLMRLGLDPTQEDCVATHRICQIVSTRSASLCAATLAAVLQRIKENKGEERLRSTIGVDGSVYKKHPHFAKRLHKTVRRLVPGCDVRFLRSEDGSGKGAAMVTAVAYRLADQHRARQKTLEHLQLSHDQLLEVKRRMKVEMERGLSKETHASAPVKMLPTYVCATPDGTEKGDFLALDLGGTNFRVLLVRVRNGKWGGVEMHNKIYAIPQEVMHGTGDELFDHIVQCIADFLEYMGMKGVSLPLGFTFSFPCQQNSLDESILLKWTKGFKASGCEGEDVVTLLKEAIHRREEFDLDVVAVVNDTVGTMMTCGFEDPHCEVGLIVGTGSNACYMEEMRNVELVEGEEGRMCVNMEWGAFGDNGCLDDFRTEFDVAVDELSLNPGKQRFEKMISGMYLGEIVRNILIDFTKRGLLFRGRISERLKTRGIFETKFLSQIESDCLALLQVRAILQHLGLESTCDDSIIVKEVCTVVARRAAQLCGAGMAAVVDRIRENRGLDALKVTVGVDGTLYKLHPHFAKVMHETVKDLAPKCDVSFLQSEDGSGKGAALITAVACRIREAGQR

Pyruvate kinase PKM [1] = target: T2, Pyruvate kinase PKM (Homo sapiens, UniProt P14618); assay: Activation of pyruvate kinase PKM2 (unknown origin)
Pyruvate kinase PKM [2] = target: T2, Pyruvate kinase PKM; assay: Activation of pyruvate kinase PKM2 in human A549 cells; assay type: cell-based
[3] = Growth inhibition of VHL-positive human RCC4/VHL cells; assay type: functional, cell-based
[4] = Growth inhibition of VHL deficient human RCC4 cells; assay type: functional, cell-based
[5] = target: T3, Monocarboxylate transporter 1 (Homo sapiens, UniProt P53985); assay: Binding affinity to MCT1 (unknown origin)
T3 sequence (P53985 whole entry): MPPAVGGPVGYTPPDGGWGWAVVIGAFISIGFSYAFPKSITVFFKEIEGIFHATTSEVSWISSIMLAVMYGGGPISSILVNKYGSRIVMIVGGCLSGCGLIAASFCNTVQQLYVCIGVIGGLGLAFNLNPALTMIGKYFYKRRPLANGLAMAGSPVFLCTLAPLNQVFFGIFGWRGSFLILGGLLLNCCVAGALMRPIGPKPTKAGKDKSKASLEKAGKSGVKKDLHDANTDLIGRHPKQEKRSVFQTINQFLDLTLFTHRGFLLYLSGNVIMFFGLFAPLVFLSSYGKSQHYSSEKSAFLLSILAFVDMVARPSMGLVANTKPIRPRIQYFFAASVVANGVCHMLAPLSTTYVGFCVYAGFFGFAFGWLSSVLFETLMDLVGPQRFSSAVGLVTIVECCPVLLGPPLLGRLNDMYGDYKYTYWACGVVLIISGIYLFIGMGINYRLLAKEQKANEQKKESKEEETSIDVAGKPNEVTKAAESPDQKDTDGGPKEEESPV

A549 = assay: Antitumor activity against human A549 cells in in-vivo xenograft model assessed as reduction in tumor volume at 10 mg/kg/day, ip; assay type: functional; conditions: route intraperitoneal
Homo sapiens = species on record: Homo sapiens; assay: Inhibition of glucose transporter GLUT (unknown origin) by standard glucose uptake assay; conditions: concentration not given here
[6] = Growth inhibition of human H1299 cells; assay type: functional, NCI-H1299
[7] = Cytotoxicity against human H1299 cells assessed as reduction in cell viability; assay type: functional, cell-based; conditions: NCI-H1299
[8] = target: 6-phosphofructo-2-kinase/fructose-2,6-bisphosphatase 3 (Homo sapiens, UniProt Q16875); assay: Inhibition of PFKFB3 (unknown origin)
[9] = Antiproliferative activity against human MIAPaCa2 cells assessed as inhibition of cell proliferation; assay type: functional, cell-based; conditions: MIA PaCa-2

T2 sequence (P14618 whole entry): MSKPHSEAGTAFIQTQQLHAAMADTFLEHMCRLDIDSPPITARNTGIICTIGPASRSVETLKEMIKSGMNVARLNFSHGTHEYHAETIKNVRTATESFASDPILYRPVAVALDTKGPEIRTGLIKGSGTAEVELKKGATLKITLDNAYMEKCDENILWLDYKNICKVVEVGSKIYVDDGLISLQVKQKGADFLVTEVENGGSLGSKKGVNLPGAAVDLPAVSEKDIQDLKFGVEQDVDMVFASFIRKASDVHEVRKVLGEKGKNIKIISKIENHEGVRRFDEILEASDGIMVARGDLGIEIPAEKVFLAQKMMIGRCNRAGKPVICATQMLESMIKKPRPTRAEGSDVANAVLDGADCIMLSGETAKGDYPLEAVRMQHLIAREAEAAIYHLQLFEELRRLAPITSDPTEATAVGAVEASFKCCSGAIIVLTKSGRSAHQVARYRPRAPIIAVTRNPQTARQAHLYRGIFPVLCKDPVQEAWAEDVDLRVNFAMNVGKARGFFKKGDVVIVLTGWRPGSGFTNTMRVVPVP
6-phosphofructo-2-kinase/fructose-2,6-bisphosphatase 3, sequence (Q16875 whole entry): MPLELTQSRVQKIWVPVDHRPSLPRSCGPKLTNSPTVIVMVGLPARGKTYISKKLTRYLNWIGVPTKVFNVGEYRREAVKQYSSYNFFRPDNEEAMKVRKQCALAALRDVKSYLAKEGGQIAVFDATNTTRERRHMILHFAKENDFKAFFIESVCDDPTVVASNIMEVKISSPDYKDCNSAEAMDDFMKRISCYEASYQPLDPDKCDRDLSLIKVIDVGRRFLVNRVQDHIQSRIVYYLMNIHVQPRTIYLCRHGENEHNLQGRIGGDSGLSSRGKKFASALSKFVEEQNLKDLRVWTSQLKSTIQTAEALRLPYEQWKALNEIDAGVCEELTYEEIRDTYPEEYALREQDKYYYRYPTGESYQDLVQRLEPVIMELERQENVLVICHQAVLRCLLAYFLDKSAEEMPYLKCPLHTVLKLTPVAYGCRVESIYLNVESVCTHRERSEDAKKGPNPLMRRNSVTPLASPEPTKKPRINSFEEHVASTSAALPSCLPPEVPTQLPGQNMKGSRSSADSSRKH
Alpha-enolase, sequence (P06733 whole entry): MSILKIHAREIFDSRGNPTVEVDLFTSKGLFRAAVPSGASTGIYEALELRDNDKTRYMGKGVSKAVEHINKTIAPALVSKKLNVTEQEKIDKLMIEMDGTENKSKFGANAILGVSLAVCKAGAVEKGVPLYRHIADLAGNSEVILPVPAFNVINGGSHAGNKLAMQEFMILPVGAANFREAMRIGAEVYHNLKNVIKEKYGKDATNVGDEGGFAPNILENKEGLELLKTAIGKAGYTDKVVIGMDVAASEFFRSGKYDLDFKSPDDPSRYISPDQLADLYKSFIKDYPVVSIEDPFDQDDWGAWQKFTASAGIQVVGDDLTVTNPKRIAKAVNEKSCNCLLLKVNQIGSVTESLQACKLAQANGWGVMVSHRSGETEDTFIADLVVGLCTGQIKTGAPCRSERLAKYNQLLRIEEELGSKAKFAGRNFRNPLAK

For NCCOCCOCCNC(=O)Cc1ccc(Nc2nc(NCc3ccc(F)cc3)nc(NCC3CCCCC3)n2)cc1, the IC50 (Alpha-enolase) was 576 nM.
Work on Cc1ccc(S(=O)(=O)NC[C@H]2O[C@@H](O)[C@H](NC(=O)/C=C/c3ccc(Cl)c(Cl)c3)[C@@H](O)[C@@H]2O)cc1 yielded an IC50 (Hexokinase-2) of less than 316 nM.
With COc1ccccc1N1CCN(C(=O)c2ccc(NS(=O)(=O)c3cccc4cccnc34)cc2)CC1 the AC50 (Pyruvate kinase PKM [1]) was 17 nM and the AC50 (Pyruvate kinase PKM [2]) was 45 nM.
NCCOCCOCCOCCOCCOCCOCCCc1ccc(S(=O)(=O)NCc2ccc(C(=O)Nc3cccnc3)cc2)cc1 gave an IC50 [3] greater than 40 µM and an IC50 [4] of 7.9 µM.
Cc1[nH]nc(C(F)(F)F)c1Cc1sc2c(c1C(=O)N1C[C@](C)(O)CO1)c(=O)n(C)c(=O)n2C(C)C [AZD3965] showed a Kd [5] of 1.6 nM.
CS(=O)(=O)N1CCc2cc(S(=O)(=O)c3ccc4c(c3)OCCO4)ccc21 gave an AC50 (Pyruvate kinase PKM [1]) of 45 nM.
In the case of O=C(Oc1cccc(F)c1OC(=O)c1cccc(O)c1)c1cccc(O)c1, the inhibition in vivo at 10 mg/kg/day (A549) is reported as 70%, the inhibition (Homo sapiens) is reported as 93% and the “growth inhibition (GI)” value [6] is reported as 41%. For the same compound, the IC50 [7] was 10 µM.
For O=C(/C=C/c1cccnc1)c1ccncc1, the IC50 [8] was 22.9 µM.
For O=C(/C=C/c1ccc2ccccc2n1)c1ccncc1, the IC50 [8] was 0.207 µM.
In the case of O=C1CC(c2ccc(N3CCOCC3)cc2)(c2ccsc2)NC(=O)C1Sc1ccccc1Cl (stereo not given), the EC50 [9] is reported as 250 nM.
